Assays:
[1] = target: HcbA3C-His (HcbA3, NADH:FMN oxidoreductase); assay: fluorescence quenching titration of flavin; assay type: binding, Nocardioides sp. PD653; details: 50 nM FMN, 20 mM KPi pH 7.5, 20°C; oxidized FMN
[2] = system: HcbA3C-His (HcbA3, NADH:FMN oxidoreductase); assay: NADH oxidation at […] nm, steady-state ping-pong fit; assay type: biochemical, Nocardioides sp. PD653; details: 20 mM KPi pH 7.5, 20°C, ping-pong bi-bi

| SMILES | Kd [1] [nM] | Km ([2]; NADH 10–120 µM) [µM] | Km ([2]; FMN 1–8 µM) [µM] |
| --- | --- | --- | --- |
| Cc1cc2nc3c(=O)[nH]c(=O)nc-3n(C[C@H](O)[C@H](O)[C@H](O)COP(=O)(O)O)c2cc1C [FMN] | 750 ± 170 | 4.43 ± 0.69 | – |
| NC(=O)C1=CN([C@@H]2O[C@H](COP(=O)(O)OP(=O)(O)OC[C@H]3O[C@@H](n4cnc5c(N)ncnc54)[C@H](O)[C@@H]3O)[C@@H](O)[C@H]2O)C=CC1 [NADH] | – | – | 51.7 ± 11.6 |
